Measurements taken from paper PMC6934184, “Selective DNA-PKcs inhibition extends the therapeutic index of localized radiotherapy and chemotherapy” (The Journal of Clinical Investigation, 2019).

Target: T1, INSRR (IRR) (Homo sapiens, UniProt P14616)
T1 construct: purchased Thermo Fisher Scientific (Life Technologies) SelectScreen
Test: SelectScreen Z'LYTE
Type: biochemical
Summary of the method: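 NU5455 was profiled across the SelectScreen Broad panel of kinase activity and binding assays. Z'LYTE reactions such as CSF1R ran at apparent Km ATP, while the Adapta CAMK1 assay used ATP listed as 10. Values are given as percent.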

T1 sequence (P14616 27-1297): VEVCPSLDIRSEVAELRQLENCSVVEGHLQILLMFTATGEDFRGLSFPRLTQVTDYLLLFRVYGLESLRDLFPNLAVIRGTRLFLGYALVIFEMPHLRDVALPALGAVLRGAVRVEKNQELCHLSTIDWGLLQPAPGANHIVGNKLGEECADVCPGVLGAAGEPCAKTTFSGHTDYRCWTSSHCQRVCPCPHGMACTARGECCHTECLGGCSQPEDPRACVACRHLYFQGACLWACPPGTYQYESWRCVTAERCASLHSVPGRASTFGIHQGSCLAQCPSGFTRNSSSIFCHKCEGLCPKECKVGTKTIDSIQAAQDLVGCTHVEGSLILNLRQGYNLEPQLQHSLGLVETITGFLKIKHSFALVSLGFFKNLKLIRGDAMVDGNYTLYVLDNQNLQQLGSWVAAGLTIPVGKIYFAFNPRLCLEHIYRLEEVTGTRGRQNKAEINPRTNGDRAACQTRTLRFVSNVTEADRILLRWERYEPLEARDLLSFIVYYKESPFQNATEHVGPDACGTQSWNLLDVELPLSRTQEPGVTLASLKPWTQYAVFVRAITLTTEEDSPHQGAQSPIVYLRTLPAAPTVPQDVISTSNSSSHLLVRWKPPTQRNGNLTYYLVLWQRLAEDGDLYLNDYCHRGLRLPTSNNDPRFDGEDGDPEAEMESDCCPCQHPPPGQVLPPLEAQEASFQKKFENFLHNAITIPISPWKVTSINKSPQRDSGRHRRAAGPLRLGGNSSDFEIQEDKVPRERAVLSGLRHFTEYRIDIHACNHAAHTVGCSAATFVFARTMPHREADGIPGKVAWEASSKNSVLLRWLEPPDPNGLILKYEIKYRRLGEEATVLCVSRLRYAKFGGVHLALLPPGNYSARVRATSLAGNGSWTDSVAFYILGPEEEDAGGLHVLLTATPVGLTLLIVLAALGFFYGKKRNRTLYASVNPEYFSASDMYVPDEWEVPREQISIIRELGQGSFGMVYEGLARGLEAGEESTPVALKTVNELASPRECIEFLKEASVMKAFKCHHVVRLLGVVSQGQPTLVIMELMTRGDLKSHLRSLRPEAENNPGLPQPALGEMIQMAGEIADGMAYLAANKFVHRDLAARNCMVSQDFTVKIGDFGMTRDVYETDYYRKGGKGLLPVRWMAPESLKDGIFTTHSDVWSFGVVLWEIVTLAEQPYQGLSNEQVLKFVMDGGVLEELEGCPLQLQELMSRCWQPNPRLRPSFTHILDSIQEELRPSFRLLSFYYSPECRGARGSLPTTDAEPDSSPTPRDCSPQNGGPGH

CN(C(=O)CN1CCOCC1)c1ccc2sc3c(-c4cccc5c(=O)cc(N6CC7CCC(C6)O7)oc45)cccc3c2c1 [NU5455]
inhibition at 1 µM: 14.1%
